In patent US9139557B2, “Carboxamide compounds and their use as calpain inhibitors” (Abbott GmbH & Co. KG, priority 2006, dated 2015):

Experiments:
Format in all cases: biochemical
[1] = molecular target: T1, cathepsin B (Homo sapiens, UniProt P07858); assay: Cathepsin B enzyme inhibition in vitro (kinetic fluorescence assay); details: Ki(cathepsin B)/Ki(calpain) ratio
T1 construct: cathepsin B—isolated from human liver; purchased Calbiochem 219362; host or cells: human liver (tissue isolate)
Method in brief: (§1)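 Kinetic fluorescence (ex 390/em 460 nm), room temperature: calpain-I (human erythrocyte, 20 nM) with 100 µM Suc-Leu-Tyr-AMC, imidazole/CaCl2 pH 7.3; cathepsin B (liver, 0.25 nM), 100 µM Z-Phe-Arg-AMC; L (liver, 1 nM), 2 µM Z-Phe-Arg-AMC; S (recombinant, 0.5 nM), 20 µM Z-Val-Val-Arg-AMC; cathepsins in MES/EDTA/cysteine pH 6.0. Apparent Ki via Cheng-Prusoff, 2–4 curves averaged.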

[2] = molecular target: T2, cathepsin K (Homo sapiens, UniProt P43235); assay: Cathepsin K enzyme inhibition in vitro (kinetic fluorescence assay); details: Ki(cathepsin K)/Ki(calpain) ratio
T2 construct: purchased Calbiochem 342001; host or cells: E. coli
T2 sequence (P43235 115-329): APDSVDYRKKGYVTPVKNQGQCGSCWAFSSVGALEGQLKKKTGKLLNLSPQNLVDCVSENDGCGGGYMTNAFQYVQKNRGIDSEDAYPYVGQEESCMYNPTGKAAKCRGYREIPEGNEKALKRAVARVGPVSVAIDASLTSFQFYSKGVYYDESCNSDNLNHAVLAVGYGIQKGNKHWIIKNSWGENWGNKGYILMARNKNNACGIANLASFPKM

[3] = molecular target: T3, cathepsin L (Homo sapiens, UniProt P07711); assay: Cathepsin L enzyme inhibition in vitro (kinetic fluorescence assay); details: Ki(cathepsin L)/Ki(calpain) ratio
T3 construct: cathepsin L—isolated from human liver; purchased Calbiochem 219402; host or cells: human liver (tissue isolate)
T3 sequence (P07711 114-333): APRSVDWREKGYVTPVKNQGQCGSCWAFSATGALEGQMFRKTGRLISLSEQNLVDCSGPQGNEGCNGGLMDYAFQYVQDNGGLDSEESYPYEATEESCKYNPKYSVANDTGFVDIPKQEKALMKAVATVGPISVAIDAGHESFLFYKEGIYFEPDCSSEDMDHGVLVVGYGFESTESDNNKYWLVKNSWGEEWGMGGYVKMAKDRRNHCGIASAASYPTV
Method in brief: as §1

[4] = molecular target: T4, cathepsin S (Homo sapiens, UniProt P25774); assay: Cathepsin S enzyme inhibition in vitro (kinetic fluorescence assay); details: Ki(cathepsin S)/Ki(calpain) ratio
T4 construct: purchased Calbiochem 219343; host or cells: E. coli
T4 sequence (P25774 115-331): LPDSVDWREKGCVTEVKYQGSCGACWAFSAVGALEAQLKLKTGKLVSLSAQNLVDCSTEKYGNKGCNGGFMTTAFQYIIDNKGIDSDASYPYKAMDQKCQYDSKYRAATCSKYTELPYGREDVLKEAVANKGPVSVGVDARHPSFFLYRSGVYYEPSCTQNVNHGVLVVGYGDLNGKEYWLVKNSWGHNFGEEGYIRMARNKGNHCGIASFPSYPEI
Method in brief: as §1

| SMILES | Sel cat. B [1] | Sel cat. K [2] | Sel cat. L [3] | Sel cat. S [4] |
| --- | --- | --- | --- | --- |
| NC(=O)C(=O)C(Cc1ccccc1)NC(=O)c1cccnc1-n1ccc(-c2ccc(N3CCOCC3)cc2Cl)n1 (stereo not shown) [Example 99, N-[3-Amino-2,3-dioxo-1-(phenylmethyl)propyl]-2-[3-(2-chloro-4-morpholin-4-ylphenyl)-1H-pyrazol-1-yl]pyridine-3-carboxamide] | ++ (++ means a Ki(cathepsin B)/Ki(calpain) ratio of ≧30) | ++ (++ means a Ki(cathepsin K)/Ki(calpain) ratio of ≧30) | ++ (++ means a Ki(cathepsin L)/Ki(calpain) ratio of ≧50) | ++ (++ means a Ki(cathepsin S)/Ki(calpain) ratio of ≧100) |
| NC(=O)C(=O)C(Cc1ccccc1)NC(=O)c1cccnc1-n1cc(Cl)c(-c2ccc(F)cc2)n1 (stereo not shown) [Example 184, N-[3-Amino-2,3-dioxo-1-(phenylmethyl)propyl]-2-[4-chloro-3-(4-fluorophenyl)-1H-pyrazol-1-yl]pyridine-3-carboxamide] | + (+ means 10≦Ki(cathepsin B)/Ki(calpain)<30) | + (+ means 10≦Ki(cathepsin K)/Ki(calpain)<30) | ++ (++ means a Ki(cathepsin L)/Ki(calpain) ratio of ≧50) | ++ (++ means a Ki(cathepsin S)/Ki(calpain) ratio of ≧100) |
| NC(=O)C(=O)C(Cc1ccccc1)NC(=O)c1cccnc1-n1cc2c(n1)-c1cc(Cl)ccc1OC2 (stereo not shown) [Example 140, N-[3-Amino-2,3-dioxo-1-(phenylmethyl)propyl]-2-(8-chlorochromeno[4,3-c]pyrazol-2(4H)-yl)pyridine-3-carboxamide] | + (+ means 10≦Ki(cathepsin B)/Ki(calpain)<30) | ++ (++ means a Ki(cathepsin K)/Ki(calpain) ratio of ≧30) | ++ (++ means a Ki(cathepsin L)/Ki(calpain) ratio of ≧50) | ++ (++ means a Ki(cathepsin S)/Ki(calpain) ratio of ≧100) |
| NC(=O)C(=O)C(Cc1ccccc1)NC(=O)c1cccnc1-n1ccc(-c2ccccc2C(F)(F)F)n1 (stereo not shown) [Example 72, N-(3-Amino-1-benzyl-2,3-dioxopropyl)-2-{3-[2-(trifluoromethyl)phenyl]-1H-pyrazol-1-yl}nicotinamide] | + (+ means 10≦Ki(cathepsin B)/Ki(calpain)<30) | + (+ means 10≦Ki(cathepsin K)/Ki(calpain)<30) | + (+ means 30≦Ki(cathepsin L)/Ki(calpain)<50) | ++ (++ means a Ki(cathepsin S)/Ki(calpain) ratio of ≧100) |
| NC(=O)C(=O)C(Cc1ccc(F)cc1)NC(=O)c1cccnc1-n1ccc(-c2ccccc2OC(F)(F)F)n1 (stereo not shown) [Example 152, N-{3-Amino-1-[(4-fluorophenyl)methyl]-2,3-dioxopropyl}-2-(3-{2-[(trifluoromethyl)oxy]phenyl}-1H-pyrazol-1-yl)pyridine-3-carboxamide] | ++ (++ means a Ki(cathepsin B)/Ki(calpain) ratio of ≧30) | ++ (++ means a Ki(cathepsin K)/Ki(calpain) ratio of ≧30) | ++ (++ means a Ki(cathepsin L)/Ki(calpain) ratio of ≧50) | ++ (++ means a Ki(cathepsin S)/Ki(calpain) ratio of ≧100) |
| NC(=O)C(=O)C(Cc1ccccc1)NC(=O)c1cccnc1-n1ccc(-c2cccc(Cl)c2Cl)n1 (stereo not shown) [Example 115, N-[3-Amino-2,3-dioxo-1-(phenylmethyl)propyl]-2-[3-(2,3-dichlorophenyl)-1H-pyrazol-1-yl]pyridine-3-carboxamide] | ++ (++ means a Ki(cathepsin B)/Ki(calpain) ratio of ≧30) | ++ (++ means a Ki(cathepsin K)/Ki(calpain) ratio of ≧30) | ++ (++ means a Ki(cathepsin L)/Ki(calpain) ratio of ≧50) | ++ (++ means a Ki(cathepsin S)/Ki(calpain) ratio of ≧100) |
| NC(=O)C(=O)C(Cc1ccccc1)NC(=O)c1cccnc1-n1ccc(-c2cccc3ccccc23)n1 (stereo not shown) [Example 110, N-[3-Amino-2,3-dioxo-1-(phenylmethyl)propyl]-2-(3-naphthalen-1-yl-1H-pyrazol-1-yl)pyridine-3-carboxamide] | ++ (++ means a Ki(cathepsin B)/Ki(calpain) ratio of ≧30) | ++ (++ means a Ki(cathepsin K)/Ki(calpain) ratio of ≧30) | ++ (++ means a Ki(cathepsin L)/Ki(calpain) ratio of ≧50) | ++ (++ means a Ki(cathepsin S)/Ki(calpain) ratio of ≧100) |
| NC(=O)C(=O)C(Cc1ccccc1)NC(=O)c1cccnc1-n1ccc(-c2ccc(C(F)(F)F)cc2)n1 (stereo not shown) [Example 60, N-(3-Amino-1-benzyl-2,3-dioxopropyl)-2-{3-[4-(trifluoromethyl)phenyl]-1H-pyrazol-1-yl}nicotinamide] | + (+ means 10≦Ki(cathepsin B)/Ki(calpain)<30) | + (+ means 10≦Ki(cathepsin K)/Ki(calpain)<30) | ++ (++ means a Ki(cathepsin L)/Ki(calpain) ratio of ≧50) | + (+ means 50≦Ki(cathepsin S)/Ki(calpain)<100) |
| NC(=O)C(=O)C(Cc1ccccc1)NC(=O)c1cccnc1-n1cc2c(n1)-c1ccccc1SC2 (stereo not shown) [Example 173, N-[3-Amino-2,3-dioxo-1-(phenylmethyl)propyl]-2-thiochromeno[4,3-c]pyrazol-2(4H)-ylpyridine-3-carboxamide] | + (+ means 10≦Ki(cathepsin B)/Ki(calpain)<30) | + (+ means 10≦Ki(cathepsin K)/Ki(calpain)<30) | ++ (++ means a Ki(cathepsin L)/Ki(calpain) ratio of ≧50) | ++ (++ means a Ki(cathepsin S)/Ki(calpain) ratio of ≧100) |
| COc1ccc(CC(NC(=O)c2cccnc2-n2ccc(-c3cccc4ccccc34)n2)C(=O)C(N)=O)cc1 (stereo not shown) [Example 135, N-(3-Amino-1-{[4-(methyloxy)phenyl]methyl}-2,3-dioxopropyl)-2-(3-naphthalen-1-yl-1H-pyrazol-1-yl)pyridine-3-carboxamide] | ++ (++ means a Ki(cathepsin B)/Ki(calpain) ratio of ≧30) | ++ (++ means a Ki(cathepsin K)/Ki(calpain) ratio of ≧30) | ++ (++ means a Ki(cathepsin L)/Ki(calpain) ratio of ≧50) | ++ (++ means a Ki(cathepsin S)/Ki(calpain) ratio of ≧100) |
| Cc1c(Cl)ccc2c1-c1nn(-c3ncccc3C(=O)NC(Cc3ccccc3)C(=O)C(N)=O)cc1CO2 (stereo not shown) [Example 143, N-[3-Amino-2,3-dioxo-1-(phenylmethyl)propyl]-2-(8-chloro-9-methylchromeno[4,3-c]pyrazol-2(4H)-yl)pyridine-3-carboxamide] | ++ (++ means a Ki(cathepsin B)/Ki(calpain) ratio of ≧30) | ++ (++ means a Ki(cathepsin K)/Ki(calpain) ratio of ≧30) | ++ (++ means a Ki(cathepsin L)/Ki(calpain) ratio of ≧50) | ++ (++ means a Ki(cathepsin S)/Ki(calpain) ratio of ≧100) |
| NC(=O)C(=O)C(Cc1ccccc1)NC(=O)c1cccnc1-n1ccc(-c2cccc(Cl)c2)n1 (stereo not shown) [Example 70, N-(3-Amino-1-benzyl-2,3-dioxopropyl)-2-[3-(3-chlorophenyl)-1H-pyrazol-1-yl]nicotinamide] | + (+ means 10≦Ki(cathepsin B)/Ki(calpain)<30) | + (+ means 10≦Ki(cathepsin K)/Ki(calpain)<30) | ++ (++ means a Ki(cathepsin L)/Ki(calpain) ratio of ≧50) | ++ (++ means a Ki(cathepsin S)/Ki(calpain) ratio of ≧100) |
| COc1ccc(F)cc1-c1ccn(-c2ncccc2C(=O)NC(Cc2ccccc2)C(=O)C(N)=O)n1 (stereo not shown) [Example 130, N-[3-Amino-2,3-dioxo-1-(phenylmethyl)propyl]-2-{3-[5-fluoro-2-(methyloxy)phenyl]-1H-pyrazol-1-yl}pyridine-3-carboxamide] | ++ (++ means a Ki(cathepsin B)/Ki(calpain) ratio of ≧30) | ++ (++ means a Ki(cathepsin K)/Ki(calpain) ratio of ≧30) | ++ (++ means a Ki(cathepsin L)/Ki(calpain) ratio of ≧50) | ++ (++ means a Ki(cathepsin S)/Ki(calpain) ratio of ≧100) |
